The values that follow come from publication PMC8583417, “Evaluation of the Antimicrobial Efficacy of N-Acetyl-L-Cysteine, Rhamnolipids, and Usnic Acid—Novel Approaches to Fight Food-Borne Pathogens” (International Journal of Molecular Sciences, 2021).

Molecules are shown by their SMILES. In brackets after ≈: the same amount, converted by molar mass. Marks after values point to notes of the source that are not given here.

For assay [1], the system named is cell lines HRTEC, HaCat, HDF, HEK 293, HCAEC. Put plainly: Acute cytotoxicity, resazurin assay, summary over cell lines. The class given is cell-based, human. The following applies: 72 h. The text has this: (§1) To test the acute cytotoxicity of the compounds, the following cell lines were used: primary human renal tubular epithelial cells (HRTEC; Evercyte, Vienna, Austria); human keratinocytes (HaCat; Thermo Fisher Scientific, Waltham, MA, USA); human dermal fibroblasts (HDF; Merck, Kenilworth, NJ, USA); human epithelial kidney cells (HEK 293; ATCC, Manassas, VI, USA); primary human coronary artery endothelial cells (HCAEC; ATCC, Manassas, VI, USA). The cell lines were maintained in a proper cultivation medium—HaCat, HDF, and Hek 293 in DMEM; HRTEC in VCB; HCAEC in ProxUp. The cytotoxicity experiment was realized according to Tran et al.. Briefly, the cells were counted by the Cellometer Auto T4 (Nexcelom Bioscience, Lawrence, MA, USA), and the cell suspension containing a cell density of 10^5 cells/mL was split into the 96-well plate, with 100 µL per well. The plates were then incubated for 24 h at 37 °C in a humidified atmosphere of 5% CO2. Then, the plates were washed three times with PBS, and the tested natural compounds were added using binary dilution in a proper medium. After 72 h of incubation, the cell viability was tested by resazurin assay. The fluorescence was measured by a SpectraMax i3× microplate reader (San Jose, CA, USA) at a wavelength of 560 nm excitation/590 nm emission.
The cytotoxicity results are expressed as the average IC50 ± standard error of the mean (SEM). […]
Background: Alamar Blue is a resazurin reagent that responds to reducing activity.

Assay [2] has as its system HRTEC (primary human renal tubular epithelial cells). Put plainly: Acute cytotoxicity, resazurin assay. The class given is cell-based. The following applies: 72 h.
Text: as §1
(§2) The cytotoxicity results are expressed as the average IC50 ± standard error of the mean (SEM). Values of IC50 were obtained by using the online tool Quest Graph IC50 Calculator (AAT Bioquest Inc., Sunnyvale, CA, USA). One-way analysis of variance (ANOVA) was used followed by Duncan’s post hoc test (p < 0.05) to show the differences between the groups. For ANOVA, the Statistica software (Tibco Software Inc., Palo Alto, CA, USA) was used in version 12.

For assay [3], the system named is HEK 293 (human epithelial kidney cells). Put plainly: Acute cytotoxicity, resazurin assay. The class given is cell-based.
Text: as §1, §2

The subject of assay [4] is HCAEC (primary human coronary artery endothelial cells). Put plainly: Acute cytotoxicity, resazurin assay. The following applies: 72 h. Type of assay: cell-based.
Text: as §1, §2

Assay [5] deals with HDF (human dermal fibroblasts). Put plainly: Acute cytotoxicity, resazurin assay. The class given is cell-based. As to conditions: 72 h.
Text: as §1, §2

The test system of assay [6] is HaCat (human keratinocytes). Put plainly: Acute cytotoxicity, resazurin assay. Type of assay: cell-based. As to conditions: 72 h.
Text: as §1, §2

Assay [7] has as its system S. Infantis S13. Put plainly: MIC for reduction of preformed biofilm (crystal violet staining). The following applies: for MICBR80: ≥80% reduction of preformed biofilm (18 h), 20 h with substance. Type of assay: cell-based, Salmonella enterica Infantis. How it is done: (§3) Ten concentrations of NAC, RLs, and UA were tested to determine the minimum inhibitory concentration for planktonic growth, and subsequently, the six highest concentrations were applied on preformed biofilms to evaluate the biofilm eradication ability of the compounds. MIC was defined as the lowest substance concentration able to inhibit at least 80% of microbial growth (MICPC80 for planktonic cells, MICBC80 for further growth of biofilm cells), inhibit 80% of metabolic activity (MICBM80 for biofilm metabolic activity, MICMPB80 for metabolic activity of preformed biofilm), prevent biofilm formation by at least 80% (MICBF80 for biofilm formation), or reduce a preformed biofilm by at least 80% (MICBR80 for biofilm reduction). The results of MICs are summarized in Table 1 (planktonic cells) and Table 2 (biofilm-associated cells).
(§4) The determination of MICs was performed according to Chlumsky et al.. Briefly, 96-well flat-bottomed microtiter plates were inoculated with 75 µL (for biofilm formation) or 100 µL (for preformed biofilm) of bacterial suspension (A625nm 0.08 to 0.1) in technical triplicates and were then carefully mixed with the dilution series of the test substances (24 h cultivation at 25 °C for S. Infantis, 37 °C for other strains) or were directly cultivated to preform biofilms (18 h). For a positive control of bacterial growth, the inoculum was mixed with a pure sterile medium. Furthermore, the sterile medium was included in the plate as a marker of potential microbial contamination. To evaluate planktonic cells growth (MICPC80) and further growth of biofilm cells (MICBC80), the optical density of the content of the microtiter plates was measured spectrophotometrically at 625 nm before and after 24 h (for biofilm formation) of cultivation or before and after additional 20 h incubation with the tested compound (for preformed biofilm). The difference of A625nm was considered as a measure of the ability of cells to grow in the presence of the tested substances. To evaluate the inhibition of biofilm formation (MICBF80) and reduction in preformed biofilms (MICBR80), biomass was quantified using crystal violet staining, and its metabolic activity (MICBM80 and MICMPB80) was estimated by using the MTT (thiazyl tetrazolium bromide, Sigma-Aldrich, USA) reduction assay, both measured spectrophotometrically at 595 nm.
(§5) All inhibitions were calculated using the formula of Chlumsky et al. below (Equation (1)):(1) A625(595)nm inhibition (%)=A625(595)nm (control) – A625(595)nm(natural substance)/A625(595)nm (control)× 100 where A625(595)nm (control) is the absorbance of bacterial suspension/biofilm itself, and A625(595)nm(natural substance) is the absorbance of the bacterial suspension/biofilm with the added natural substance (NAC, RLs, and UA).
(§6) When the minimum inhibitory concentration could not be determined, the MIC was established as >the highest tested concentration for NAC, RLs, and UA.

Assay [8] deals with S. Infantis S59. The description is as above. The class given is cell-based, Salmonella enterica Infantis. The following applies: for MICBR80: ≥80% reduction of preformed biofilm (18 h), 20 h with substance. The procedure: as §3, §4, §5, §6
For assay [9], the system named is L. monocytogenes 149. Put plainly: MIC for biofilm metabolic activity (MTT reduction assay). The class given is cell-based, Listeria monocytogenes. The following applies: ≥80% inhibition, 24 h. The procedure:
as §3
as §4, with “Furthermore, the sterile medium was included in the plate as a marker of potential microbial contamination.” left out, “The difference of A625nm was considered as a measure of the ability of cells to grow in the presence of the tested substances.” left out
as §5, §6
(Tetrazolium dyes change colour on reduction, which living cells bring about.)

The test system of assay [10] is L. monocytogenes 164. The assay is described as above. The class given is cell-based, Listeria monocytogenes. As to conditions: ≥80% inhibition, 24 h. The procedure:
as §3
as §4, with “Furthermore, the sterile medium was included in the plate as a marker of potential microbial contamination.” left out, “The difference of A625nm was considered as a measure of the ability of cells to grow in the presence of the tested substances.” left out
as §5, §6

Assay [11] concerns S. Enteritidis ATCC 13076. Put plainly: MIC for biofilm formation (crystal violet staining). The class given is cell-based, Salmonella enterica Enteritidis. As to conditions: for MICBF80: ≥80% prevention, 24 h. How it is done:
as §3
The determination of MICs was performed according to Chlumsky et al.. […] To evaluate planktonic cells growth (MICPC80) and further growth of biofilm cells (MICBC80), the optical density of the content of the microtiter plates was measured spectrophotometrically at 625 nm before and after 24 h (for biofilm formation) of cultivation or before and after additional 20 h incubation with the tested compound (for preformed biofilm). […] To evaluate the inhibition of biofilm formation (MICBF80) and reduction in preformed biofilms (MICBR80), biomass was quantified using crystal violet staining, and its metabolic activity (MICBM80 and MICMPB80) was estimated by using the MTT (thiazyl tetrazolium bromide, Sigma-Aldrich, USA) reduction assay, both measured spectrophotometrically at 595 nm.
All inhibitions were calculated using the formula of Chlumsky et al. below (Equation (1)):(1) A625(595)nm inhibition (%)=A625(595)nm (control) – A625(595)nm(natural substance)/A625(595)nm (control)× 100 where A625(595)nm (control) is the absorbance of bacterial suspension/biofilm itself, and A625(595)nm(natural substance) is the absorbance of the bacterial suspension/biofilm with the added natural substance (NAC, RLs, and UA). […]

Assay [12] concerns S. aureus 816. Put plainly: MIC for reduction of preformed biofilm (crystal violet staining). Type of assay: cell-based, Staphylococcus aureus. As to conditions: for MICBR80: ≥80% reduction of preformed biofilm (18 h), 20 h with substance. How it is done:
as §3, §4, §5, §6

Assay [13] has as its system S. aureus 1241. Described as above. Type of assay: cell-based, Staphylococcus aureus. As to conditions: for maximal achieved inhibition (MICBR80 not reached), biofilm reduction: preformed biofilm, within tested concentrations; for MICBR80: ≥80% reduction of preformed biofilm (18 h), 20 h with substance. How it is done: as §3, §4, §5, §6
[14] abbreviates: preformed biofilm, within tested concentrations.

Broadly, the IC50 is the midpoint of a concentration-inhibition curve.

Regarding `CC(=O)c1c(O)c(C)c(O)c2c1OC1=CC(=O)C(C(C)=O)C(=O)C12C` (single isomer, unassigned; (+)) [UA, (+)-usnic acid], in [1], the “IC50, range over cell lines” value fell in the range of 0.03 to 4.35 µg/mL. In addition, the “IC50 (µg/mL)” value in assay [2] (HRTEC, cytotoxicity, resazurin, average of 3 repetitions with SEM) is reported as 3.06 ± 0.17 ^g µg/mL; in [3] (HEK 293, cytotoxicity, 72 h, resazurin, average of 3 repetitions with SEM), 2.75 ± 0.22 ^g µg/mL; in [4] (HCAEC, cytotoxicity, resazurin, average of 3 repetitions with SEM), 0.03 ± 0.01 ^i µg/mL; in assay [5] (HDF, cytotoxicity, resazurin, average of 3 repetitions with SEM) it was 4.35 ± 0.41 ^f µg/mL; in assay [6] (HaCat, cytotoxicity, resazurin, average of 3 repetitions with SEM), 0.59 ± 0.14 ^h µg/mL. The “maximal achieved inhibition (MICBR80 not reached), biofilm reduction” value was 30% in [7] (setting [14]), 21% in [8] (setting [14]), 35% in assay [12] (setting [14]) and 72% in [13]. The MICBR80 in [7], in [8], in [12] and in [13] was > 31.3 µg/mL each time. The MICBM80 in [9] and in assay [10] was 1.96 µg/mL each time. Moreover, the “maximal achieved inhibition (MICBF80 not reached)” value in [11] (within tested concentrations) was 25%. The MICBF80 in [11] is recorded as > 31.3 µg/mL.

Turning to `CC(=O)N[C@@H](CS)C(=O)O` [NAC, N-Acetyl-L-cysteine], the IC50 is 460 to 4020 µg/mL (≈ 2.82 to 24.6 mM) in assay [1] (Homo sapiens, read-out: IC50, range over cell lines); 1570 ± 70 µg/mL (≈ 9.62 mM) in assay [2] (Homo sapiens, Epithelial cell); 1940 ± 250 µg/mL (≈ 11.9 mM) in assay [3] (Homo sapiens, HEK293, 72 h); 1830 ± 90 µg/mL (≈ 11.2 mM) in [4] (Homo sapiens, Endothelial cell); 460 ± 20 µg/mL (≈ 2.82 mM) in [5] (Homo sapiens, Fibroblast); 4020 ± 470 µg/mL (≈ 24.6 mM) in assay [6] (Homo sapiens, HaCaT). For the same compound, the MICBR80 in assay [7] is given as 12,500 µg/mL; in [8], 100,000 µg/mL; in [12], 12,500 µg/mL; in assay [13] it was > 100,000 µg/mL. Further, the MICBM80 is on record as 12,500 µg/mL in assay [9] and 6250 µg/mL in [10]. For the same compound, the MICBF80 in [11] was 12,500 µg/mL. Besides, the “maximal achieved inhibition (MICBR80 not reached), biofilm reduction” value in assay [13] is given as 31%.
